{
  "source": "patent US6034108A",
  "about": "“Method for treating mental retardation” (Eli Lilly and Company, priority 1998, dated 2000)",
  "key": {"m4 receptors": {"system": "m4 receptors", "assay": "cAMP formation in CHO m4 cells treated with pertussis toxin", "format": "cell-based", "excerpt": "Muscarinic agonists stimulate the formation of cAMP up to 10 fold in CHO m4 cells treated with pertussisi toxin and the pharmacology is consistent with the mediation by m4 receptors. Eckols K. Soc. Neurosci Abstr., 21:2040 (1995)."}, "[1]": {"target": "T1, m2 receptors in brain stem (Rattus norvegicus, UniProt P10980)", "T1 sequence (P10980 1-466)": "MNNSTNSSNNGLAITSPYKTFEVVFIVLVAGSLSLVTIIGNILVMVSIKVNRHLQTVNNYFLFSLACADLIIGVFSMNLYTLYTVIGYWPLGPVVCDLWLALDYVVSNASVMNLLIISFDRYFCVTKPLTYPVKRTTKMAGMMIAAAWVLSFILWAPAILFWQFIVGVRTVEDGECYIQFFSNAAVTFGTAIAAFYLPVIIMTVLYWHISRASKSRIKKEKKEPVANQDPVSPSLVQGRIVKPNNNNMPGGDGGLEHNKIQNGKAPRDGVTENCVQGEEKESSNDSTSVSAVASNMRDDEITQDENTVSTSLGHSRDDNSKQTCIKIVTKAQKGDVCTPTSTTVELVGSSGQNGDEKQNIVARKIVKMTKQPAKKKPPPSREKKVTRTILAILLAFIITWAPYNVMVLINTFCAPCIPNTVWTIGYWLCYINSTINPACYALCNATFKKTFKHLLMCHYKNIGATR", "assay": "3H-guinuclidinyl benzilate binding to m2 receptors in brain stem"}},
  "data": [
    {"smiles": "CCCCCCOc1nsnc1C1=CCCN(C)C1", "note": "[Xanomeline, 3-(4-hexyloxy-1,2,5-thiadiazol-3-yl)-1,2,5,6-tetrahydro-1-methylpyridine]", "values": [
      {"measurement": "stimulation of the formation of cAMP", "setting": "m4 receptors", "result": "efficaciously and potently stimulated the formation of cAMP"},
      {"measurement": "Ki", "setting": "[1]", "result": 24, "unit": "nM"}
    ]}
  ]
}
